Test results as given in publication PMC10165104, “The immunosuppressive effects and mechanisms of loureirin B on collagen-induced arthritis in rats” (Frontiers in Immunology, 2023).

Target: T1, Kv1.3 (mKv1.3) voltage-gated potassium channel (Mus musculus, UniProt P16390)
T1 construct: gene Kcna3
Assay: whole-cell voltage clamp of mKv1.[…] expressed in HEK293T cells
Format: cell-based

T1 sequence (P16390 whole entry): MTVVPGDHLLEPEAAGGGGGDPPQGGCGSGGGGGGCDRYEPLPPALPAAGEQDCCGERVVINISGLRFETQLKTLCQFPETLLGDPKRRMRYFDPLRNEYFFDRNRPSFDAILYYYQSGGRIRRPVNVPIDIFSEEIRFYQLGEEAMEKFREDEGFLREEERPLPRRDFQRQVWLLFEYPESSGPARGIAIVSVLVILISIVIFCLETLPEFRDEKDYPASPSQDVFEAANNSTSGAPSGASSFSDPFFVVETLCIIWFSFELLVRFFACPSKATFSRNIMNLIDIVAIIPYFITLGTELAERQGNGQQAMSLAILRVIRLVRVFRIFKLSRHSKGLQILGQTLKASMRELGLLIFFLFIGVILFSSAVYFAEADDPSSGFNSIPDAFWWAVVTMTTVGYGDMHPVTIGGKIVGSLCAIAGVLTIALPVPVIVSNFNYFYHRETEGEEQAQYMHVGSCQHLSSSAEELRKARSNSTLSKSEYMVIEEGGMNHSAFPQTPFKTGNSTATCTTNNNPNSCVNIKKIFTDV

## COc1cc(OC)c(CCC(=O)c2ccc(O)cc2)c(OC)c1 [LrB, Loureirin B]
  IC50: 6.33 ± 0.49 µM
